The values that follow come from the supplement of paper PMC12613149.

The nature of series [1]: collision cross section (TIMS, N2 drift gas) of the primary ion; higher = larger gas-phase ion size. The method, then:
(§1)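 Reference mixture of environmental contaminants analysed by RP-LC (BEH C18, 50 °C; ESI+ with water/MeOH plus formic acid and ammonium formate, ESI- with ammonium bicarbonate) coupled to a timsTOF Pro 2 with trapped ion mobility in nitrogen (ramp/accumulation 100 ms). CCS was calibrated with Agilent tune mix (CCS compendium) and averaged over five injections at 0.5-500 ng/mL. The table reports the lowest-CCS (putative monomer) peak; retention times are on the same gradient.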

A short description of series [2]: reversed-phase LC retention time (C18, 15 min MeOH gradient); higher = more hydrophobic / later elution. The method, then: as §1
Where [3] appears, read: ionization mode: ESI+, ion species: [M+H]+.
[4] abbreviates: ionization mode: ESI-, ion species: [M-H]-.
Setting [5] is: ionization mode: ESI+, ion species: [M]+.

`Nc1ccc2nc3c(N)cccc3nc2c1` [1,7-Diaminophenazine] gave a collision cross section in series [1] (setting [3]) of 143.6 Å². The “reversed-phase LC retention time” value in series [2] (setting [3]) is 8.4 min.

For the compound `CN(C)C(=O)Nc1ccc(Cl)c(Cl)c1` [1-(3,4-Dichlorophenyl)-3,3-dimethylurea], the collision cross section in series [1] (setting [3]) turned out to be 149.81 Å²; in series [1] (setting [4]), 146.03 Å². Besides, the figures for the “reversed-phase LC retention time” value in series [2] (setting [3]) and in series [2] (setting [4]) were 13 min and 13.2 min, respectively.

In series [1] (setting [3]), `Cn1cnc2c1c(=O)n(CCCC(=O)O)c(=O)n2C` [1-(3-carboxypropyl)-3,7-dimethylxanthine] yielded a collision cross section of 154.67 Å². Besides, in series [2] (setting [3]), the “reversed-phase LC retention time” value was determined as 8.35 min.

`O=C(Nc1ccccc1)NC1CCCCC1` [1-Cyclohexyl-3-phenylurea] displayed a collision cross section in series [1] (setting [3]) of 154.52 Å². For the same compound, the “reversed-phase LC retention time” value in series [2] (setting [3]) stood at 13.2 min.

In series [1] (setting [4]), `CCCCCCCCCCCCS(=O)(=O)O` [1-Dodecanesulfonic acid] returned a collision cross section of 165.42 Å². In addition, the “reversed-phase LC retention time” value in series [2] (setting [4]) was 16.1 min.

In the case of `CCN1CCCC1=O` [1-Ethyl-2-pyrrolidinone], the collision cross section in series [1] (setting [3]) amounted to 120.11 Å². Further, the “reversed-phase LC retention time” value in series [2] (setting [3]) turned out to be 6.97 min.

The compound `CC[n+]1ccn(C)c1` [1-Ethyl-3-methyl-imidazolium] gave a collision cross section in series [1] (setting [5]) of 115.07 Å². In addition, the “reversed-phase LC retention time” value in series [2] (setting [5]) is 0.99 min.

In series [1] (setting [4]), `CCCCCCS(=O)(=O)O` [1-Hexanesulfonic acid] came in with a collision cross section of 137.49 Å². The “reversed-phase LC retention time” value in series [2] (setting [4]) turned out to be 9.04 min.

With `Oc1cccc2ccccc12` [1-Naphthol], in series [1] (setting [4]), the collision cross section was 124.62 Å². In series [2] (setting [4]), the “reversed-phase LC retention time” value is 14.3 min.

In series [1] (setting [3]), `CCCCCCCCCCCCCCCCCCN` [1-Octadecylamine] registered a collision cross section of 184.09 Å². In series [2] (setting [3]), the “reversed-phase LC retention time” value was 18.4 min.

In series [1] (setting [3]), `c1ccc2sc(N3CCOCC3)nc2c1` [2(4-morpholinyl)benzothiazole] displayed a collision cross section of 145.3 Å². Further, the “reversed-phase LC retention time” value in series [2] (setting [3]) was found to be 12.6 min.

`O=C(c1ccc(O)cc1O)c1ccc(O)cc1O` [2,2',4,4'-Tetrahydroxybenzophenone]: the collision cross section in series [1] (setting [4]) was determined as 151.01 Å². Further, the “reversed-phase LC retention time” value in series [2] (setting [4]) was determined as 8.54 min.

The compound `Oc1ccccc1-c1ccccc1O` [2,2'-Dihydroxybiphenyl] registered a collision cross section in series [1] (setting [4]) of 143.93 Å². The “reversed-phase LC retention time” value in series [2] (setting [4]) was found to be 15.6 min.

Regarding `O=C(Nc1ccccc1)c1ccccc1SSc1ccccc1C(=O)Nc1ccccc1` [2,2'-Dithiobisbenzanilide], in series [1] (setting [3]), the collision cross section came out at 195.49 Å². Besides, the “reversed-phase LC retention time” value in series [2] (setting [3]) is 16.2 min.

In series [1] (setting [4]), `CCc1cc(Cc2cc(CC)cc(C(C)(C)C)c2O)c(O)c(C(C)(C)C)c1` [2,2'-Methylenebis(4-ethyl-6-t-butylphenol)] gave a collision cross section of 204.77 Å². In addition, the “reversed-phase LC retention time” value in series [2] (setting [4]) was found to be 19.3 min.

As for `Cc1cc(Cc2cc(C)cc(C(C)(C)C)c2O)c(O)c(C(C)(C)C)c1` [2,2'-Methylenebis(6-tert-butyl-p-cresol)], the collision cross section in series [1] (setting [4]) is reported as 196.67 Å². For the same compound, the “reversed-phase LC retention time” value in series [2] (setting [4]) was 18.8 min.

For the compound `Nc1ccc(Cc2ccc(N)c(Cl)c2)cc1Cl` [2,2'-dichloro-4,4'-methylenedianiline], the collision cross section in series [1] (setting [3]) is 173.31 Å². For the same compound, the “reversed-phase LC retention time” value in series [2] (setting [3]) is 13.8 min.

`CC(C)C(=O)OCC(C)(C)C(OC(=O)C(C)C)C(C)C` (configuration not stated) [2,2,4-Trimethyl-1,3-pentanediol diisobutyrate] displayed a collision cross section in series [1] (setting [3]) of 172.79 Å². The “reversed-phase LC retention time” value in series [2] (setting [3]) stood at 17 min.

As for `C[N+](C)(C)CC1CO1` (configuration not stated) [2,3-Epoxypropyltrimethylammonium], the collision cross section in series [1] (setting [5]) came to 117.85 Å². Besides, the “reversed-phase LC retention time” value in series [2] (setting [5]) came out at 0.95 min.

In turn, `Oc1c(Br)cc(Br)cc1Br` [2,4,6-Tribromophenol] displayed a collision cross section in series [1] (setting [4]) of 133.11 Å². Further, in series [2] (setting [4]), the “reversed-phase LC retention time” value turned out to be 12.8 min.

Compound `O=C(O)c1ccc(Cl)cc1Cl` [2,4-Dichlorobenzoic acid] displayed a collision cross section in series [1] (setting [4]) of 124.87 Å². Moreover, the “reversed-phase LC retention time” value in series [2] (setting [4]) turned out to be 6.78 min.

In the case of `O=C(c1ccccc1)c1ccc(O)cc1O` [2,4-Dihydroxybenzophenone], in series [1] (setting [4]), the collision cross section came to 146.26 Å². Moreover, the “reversed-phase LC retention time” value in series [2] (setting [4]) amounted to 11.7 min.

`O=[N+]([O-])c1ccc(O)c([N+](=O)[O-])c1` [2,4-Dinitrophenol] returned a collision cross section in series [1] (setting [4]) of 125.27 Å². The “reversed-phase LC retention time” value in series [2] (setting [4]) was determined as 6.09 min.

`CN(C)Cc1cc(C(C)(C)C)c(O)c(C(C)(C)C)c1` [2,6-Di-tert-Butyl-4-(dimethylamino)methylphenol]: the collision cross section turned out to be 176.35 Å² in series [1] (setting [3]) and 173.06 Å² in series [1] (setting [4]). Besides, the “reversed-phase LC retention time” value in series [2] (setting [3]) stood at 12.7 min; in series [2] (setting [4]) it was 17.1 min.

`NC(=O)c1c(Cl)cccc1Cl` [2,6-Dichlorobenzamide] gave a collision cross section in series [1] (setting [3]) of 133.04 Å². The “reversed-phase LC retention time” value in series [2] (setting [3]) came out at 7.49 min.

Compound `Cc1cccc(C)c1N` [2,6-Xylidine] returned a collision cross section in series [1] (setting [3]) of 117.81 Å². Besides, the “reversed-phase LC retention time” value in series [2] (setting [3]) was 17.9 min.

Take `N[C@@H](Cc1cc(I)c(Oc2ccc(O)c(I)c2)c(I)c1)C(=O)O` [3,3',5-Triiodo-L-thyronine]: the collision cross section in series [1] (setting [3]) was found to be 209.12 Å²; in series [1] (setting [4]) it was 199.54 Å².

As to `CCC(=C(c1ccc(O)cc1)c1ccc(OCCN(C)C)cc1)c1ccccc1` [4-Hydroxytamoxifen], the collision cross section in series [1] (setting [3]) stood at 202.55 Å²; in series [1] (setting [4]) it was 214.38 Å².

With `CC(C)(C)c1ccc(O)cc1` [4-tert-Butylphenol], the collision cross section in series [1] (setting [4]) is 137.69 Å².

As to `CC(=O)[C@H]1CC[C@H]2[C@@H]3CCC4=CC(=O)CC[C@]4(C)[C@H]3CC[C@]12C` [Progesterone], the collision cross section in series [1] (setting [3]) turned out to be 180.93 Å².
